Assay results: a melting point compilation (Tetko et al.; mined from patent text by program, amines drawn as free bases though some values may be those of a salt)

melting point	Structure (SMILES)
95 to 100 °C	Nc1nc2c(ncn2COCC(COC(=O)COc2ccccc2)OC(=O)COc2ccccc2)c(=O)[nH]1 (centres undefined)
265 to 266 °C	COc1ccc(N2c3ccccc3S(=O)(=O)c3ccccc32)cc1
208 to 209 °C	Cc1nc(-n2ccc(OCc3ccccc3)cc2=O)sc1C(=O)NCc1cccnc1
128 to 130 °C	CC1=CC2C(=O)NC(=O)C2(Cc2ccccc2)C=C1 (centres undefined)
87 to 92 °C	CC(C)C[C@@H](C=O)NC(=O)[C@H](Cc1c[nH]cn1)NC(=O)C(CCCCc1ccccc1)Cc1cccc2ccccc12 (some centres undefined)
246 to 247 °C	NC(=O)C(=O)Nc1nc(-c2cc(-c3ccccc3)on2)cs1
199 to 200 °C	OC(c1ccccc1)(c1ccc(F)cc1)c1ncc[nH]1 (centres undefined)
101 to 103 °C	CC(C)(C)O[C@@H]1C[C@@H](COCc2ccccc2)N(S(=O)(=O)c2ccc3ccccc3c2)C1
180 to 181 °C	O=C(Cn1nc(-c2ccccc2O)nc1-c1ccccc1O)NCC(O)CO (centres undefined)
116 to 117 °C	CC(C)(C)OC(=O)N[C@H](CO)C(=O)OC(c1ccccc1)c1ccccc1
119 to 121 °C	O=Cc1ccc(-c2ccc(-c3ccccc3)s2)s1
176 °C	Cc1c(-c2ccccc2)nc(N)nc1C1CCN(Cc2cccc(C#N)c2)CC1

Second part, the compound before the results:

Structure (SMILES)	melting point
Cc1ccc(OS(=O)(=O)c2ccc(N3CCN(C)C3=O)cc2)c(C)c1	159 to 161 °C
C/C(=N\OC(=O)C1CCN(C(=O)OC(C)(C)C)CC1)[C@H]1CC[C@H]2[C@@H]3CCC4=CC(=O)CC[C@]4(C)[C@H]3CC[C@]12C	167 to 169 °C
Cc1c(Cc2cc(Cl)cc(Cl)c2)c(C(F)(F)F)nn1CCO	91 to 93 °C
CC12CCC3C(CCC4=CC(=O)CCC43C=O)C1CCC2O (centres undefined)	125 to 127 °C
OCc1cccc2c1ccn2-c1ccnc(N[C@H]2CC[C@H](O)CC2)n1	212 to 213 °C
COC(=O)CCC(=O)c1ccc(F)cc1	48 to 50 °C
Clc1cc(Cl)c2cccc3c2c1N=C3NCCCn1ccnc1	182 to 183 °C
COC(=O)C#CCOC(N)=O	113 to 114 °C
CCOCc1nc2c(N)nc(C)c(C)c2n1NCCCS(C)(=O)=O	150 to 155 °C
C1=C2NCCCN2C(c2ccccc2)c2ccccc2C1 (centres undefined)	138 to 141 °C
COc1cc(Nc2c(C#N)cnc3cc(C#CCN(C)C)sc23)c(Cl)cc1Cl	164 to 166 °C
CC1(C)CCC(C)(C)c2cc(-c3cc([N+](=O)[O-])ccc3OS(=O)(=O)C(F)(F)F)ccc21	87 to 89 °C
CN(C(=O)Nc1ccccc1C=Cc1cc(C(C)(C)C)c(O)c(C(C)(C)C)c1)C1CCN(Cc2ccc(F)cc2)CC1	174 to 175 °C
CC1=C(C(=O)O)C(c2cccc(Cl)c2Cl)C(c2nnco2)=C(C)N1 (centres undefined)	187 to 190 °C
CCCCOC(=O)CS(=O)(=O)C=C1SC=CS1	87 to 88 °C
CC(C)Oc1cccc(C2(C)CN(C)CCC2O)c1 (centres undefined)	75 to 76 °C
NC(=O)c1cc(-c2cccc3cc(Cc4cc(F)cc(Cl)c4)sc23)ccc1F	169 to 170 °C
Cn1nc(-c2ccc3c(c2)CCNCC3)ccc1=O	183 to 185 °C
CS(=O)(=O)c1ccc(-c2c(-c3ccc(F)cc3)nc3sccn23)cc1	184 to 185 °C
CCOC(=O)c1ccc(C2=CCCCC2)cc1	66 °C
CCNC(=O)Oc1ccc2cc(N3CC(COC)OC3=O)ccc2c1 (centres undefined)	126 to 128 °C
N#CC1(c2ccc(NC(=O)c3ccc4c(c3)OCCO4)cc2)CCCC1	164 to 167 °C
CCOC(=O)c1cc(-n2c(=O)c3c(n(C)c2=O)CCC3)ccc1Cl	141 to 143 °C
Nc1ncnc2c1c(-c1ccc(NS(=O)(=O)c3ccccc3)c(O)c1)cn2C1CCCC1	265 to 267 °C
Cc1c(C(=O)Nc2ccc(OCC(C)(C)C)c(C#N)c2)cnn1C(C)(C)C	143 to 144 °C
CC(=O)Nc1ccc(C(C)=C(Cl)Cl)cc1[N+](=O)[O-]	139 to 141 °C
CCOC(=O)C(C)Oc1ncn(-c2cccc(C(F)(F)F)c2)n1 (centres undefined)	100 to 102 °C
